Source: US20250136577A1, “HETEROCYCLIC DERIVATIVES AS MALT1 INHIBITORS” (C4X Discovery Limited, priority 2022, published 2025)

Experiments:
[1] = target: FL hMALT1 enzyme (Homo sapiens (Human), UniProt Q9UDY8); assay: MALT1 Protease Assay 2 (Assay 2), higher sensitivity, cleavage of fluorogenic tetrapeptide substrate; assay type: biochemical; conditions: FL hMALT1 1-10 nM, Ac-LVSR-AMC 100 μM, 0.7 M sodium citrate, 30 min preincubation, 60 min read
Experimental: MALT1 Protease Assay 2 (Assay 2)
(§1) MALT1 protease activity was assessed in vitro by measuring the cleavage of a fluorogenic tetrapeptide substrate.
For a higher sensitivity assay, commercially available FL hMALT1 enzyme (Abcam, 1-10 nM) was incubated with substrate (Ac-LVSR-AMC, 100 μM) in reaction buffer comprising 50 mM HEPES (pH7.0), 25 mM KCl, 0.1% (v/v) CHAPS, 1 mM TCEP and 0.7 M sodium citrate.
(§2) Test compounds dissolved in DMSO were dispensed into assay plates (384-well, black, shallow ProxiPlates). 7 μl enzyme solution was added and incubated at room temperature for 30 minutes to allow compound binding to occur. 2 μl substrate solution was then added and the fluorescence (excitation 360 nm, emission 460 nm) read every 15 minutes using a suitable plate reader. Final assay DMSO concentration was 1%. Linearity over 60 minutes was confirmed, and assay signal was calculated by subtracting raw counts at time 0 from those at 60 minutes. % inhibition was calculated for each well, using no enzyme for 100% inhibition controls and no compound for 0% inhibition controls. IC50 values were calculated using GraphPad Prism using a 4-parameter non-linear regression curve fit.

[2] = tested on: IL-2 release from stimulated Jurkat cells; assay: Human IL-2 Release Phenotypic Assay (Assay 3); assay type: cell-based; conditions: Jurkat cells (clone E6-1), 200 ng/ml PMA + 300 ng/ml ionomycin, IL-2 in supernatant by ELISA
Experimental: Human IL-2 Release Phenotypic Assay (Assay 3)
This assay measured the inhibition by MALT1 inhibitors of the IL-2 release from stimulated Jurkat cells, a human immortalized T lymphocyte cell line. IL-2 production from Jurkat cells is regulated by activation of NFκB signalling, which is in turn regulated by MALT1 protease activity.
Jurkat cells (clone E6-1, ATCC) were cultured in RPMI1640 supplemented with 10% (v/v) FBS and 1% (v/v) penicillin/streptomycin (100× liquid stocks). Cells were seeded in 96-well white tissue culture-treated plates (Perkin Elmer) at 50 000 cells/well and incubated overnight at 37° C., 5% CO2. Test compounds in DMSO at half-log dilutions were added to the cells and incubated for 30 mins. Final DMSO concentration was 0.5%. Cells were then stimulated with 200 ng/ml PMA+300 ng/ml ionomycin and incubated for 48 hours. IL-2 present in the supernatant was then measured by ELISA according to the kit instructions (ELISA MAX Deluxe Set Human IL-2, BioLegend). % inhibition was calculated for each well, using 30 μM of the commercially available MALT1 inhibitor, MLT-748, for 100% inhibition controls and no compound for 0% inhibition controls. IC50 values were calculated using GraphPad Prism using 4-parameter non-linear regression curve fit.

[3] = target: MALT1-GS-Ub (6-His-hMALT-1 residues 339-715 fused to ubiquitin) (Homo sapiens (Human), UniProt Q9UDY8); assay: MALT1 Protease Assay 1 (Assay 1), cleavage of fluorogenic tetrapeptide substrate; assay type: biochemical; conditions: MALT1-GS-Ub 300-600 nM, Ac-LVSR-AMC 100 μM, 30 min preincubation, 60 min read
Experimental: MALT1 Protease Assay 1 (Assay 1)
as §1
A protein (MALT1-GS-Ub) comprising 6-His-hMALT-1 (residues 339-715), fused to ubiquitin with an 8× GGS linker, was expressed in E. coli, and purified using chitin resin to remove contaminants followed by affinity chromatography purification and size-exclusion chromatography, according to standard protocols.
Briefly, MALT1-GS-Ub (300-600 nM) was incubated with substrate (Ac-LVSR-AMC, 100 μM) in reaction buffer comprising 50 mM HEPES (pH7.0), 25 mM KCl, 0.1% (v/v) CHAPS and 1 mM TCEP.
as §2

MALT1-GS-Ub (6-His-hMALT-1 residues 339-715 fused to ubiquitin), sequence (Q9UDY8 other isoform, or with tags, fused parts or gaps): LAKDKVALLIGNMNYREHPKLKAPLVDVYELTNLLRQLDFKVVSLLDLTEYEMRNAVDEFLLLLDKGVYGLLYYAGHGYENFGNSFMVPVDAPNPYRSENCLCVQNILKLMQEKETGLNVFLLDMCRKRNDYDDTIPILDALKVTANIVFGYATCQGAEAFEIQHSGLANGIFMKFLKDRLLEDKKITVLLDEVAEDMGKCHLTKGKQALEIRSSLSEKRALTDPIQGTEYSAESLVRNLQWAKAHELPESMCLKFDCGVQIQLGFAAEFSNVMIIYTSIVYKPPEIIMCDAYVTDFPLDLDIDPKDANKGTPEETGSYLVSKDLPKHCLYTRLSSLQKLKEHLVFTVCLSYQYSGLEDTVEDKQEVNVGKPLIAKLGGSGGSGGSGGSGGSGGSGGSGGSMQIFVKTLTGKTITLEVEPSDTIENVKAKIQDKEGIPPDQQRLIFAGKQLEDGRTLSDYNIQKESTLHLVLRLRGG
FL hMALT1 enzyme, sequence (Q9UDY8 whole entry): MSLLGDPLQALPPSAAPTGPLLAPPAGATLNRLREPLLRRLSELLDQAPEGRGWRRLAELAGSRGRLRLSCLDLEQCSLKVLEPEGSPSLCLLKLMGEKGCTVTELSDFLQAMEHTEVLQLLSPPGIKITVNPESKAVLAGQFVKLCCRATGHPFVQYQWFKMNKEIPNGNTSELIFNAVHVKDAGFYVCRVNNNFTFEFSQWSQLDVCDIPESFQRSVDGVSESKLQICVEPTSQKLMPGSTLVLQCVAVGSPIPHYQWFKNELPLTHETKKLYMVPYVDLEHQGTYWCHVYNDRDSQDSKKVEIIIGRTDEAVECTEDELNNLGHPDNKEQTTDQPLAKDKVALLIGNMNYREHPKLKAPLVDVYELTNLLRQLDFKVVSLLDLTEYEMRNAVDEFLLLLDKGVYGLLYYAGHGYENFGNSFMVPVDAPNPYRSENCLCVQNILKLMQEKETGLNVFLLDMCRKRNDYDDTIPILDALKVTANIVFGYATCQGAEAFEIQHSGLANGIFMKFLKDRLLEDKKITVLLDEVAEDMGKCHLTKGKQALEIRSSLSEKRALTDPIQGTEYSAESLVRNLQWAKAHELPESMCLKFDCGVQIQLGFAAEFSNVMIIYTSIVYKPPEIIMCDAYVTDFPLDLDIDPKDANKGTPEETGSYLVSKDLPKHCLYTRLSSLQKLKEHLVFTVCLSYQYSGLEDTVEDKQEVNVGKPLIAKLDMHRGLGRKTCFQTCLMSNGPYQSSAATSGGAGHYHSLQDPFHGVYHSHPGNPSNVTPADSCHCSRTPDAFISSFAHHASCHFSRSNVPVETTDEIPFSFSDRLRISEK

| SMILES | IC50 [1] [nM] | IC50 ([2]; Homo sapiens, Jurkat, 48 h) [nM] | IC50 ([2]; 48 hours) [nM] | IC50 [3] [nM] |
| --- | --- | --- | --- | --- |
| Cc1ncc2c(c1Br)OC(C(F)(F)F)CN2C(=O)Nc1cnc(-n2nccn2)c(Cl)c1 (single isomer, unassigned) [Example 43, 8-Bromo-N-(5-chloro-6-(2H-1,2,3-triazol-2-yl)pyridin-3-yl)-7-methyl-2-(trifluoromethyl)-2,3-dihydro-4H-pyrido[4,3-b][1,4]oxazine-4-carboxamide] | 60 | 1400 |  |  |
| CCC1CN(C(=O)Nc2cnc(-n3nccn3)c(Cl)c2)c2cncc(Br)c2O1 (single isomer, unassigned) [Example 47, 8-Bromo-N-(5-chloro-6-(2H-1,2,3-triazol-2-yl)pyridin-3-yl)-2-ethyl-2,3-dihydro-4H-pyrido[4,3-b][1,4]oxazine-4-carboxamide] | 130 |  | > 10000 |  |
| CC(C)C1CN(C(=O)Nc2cnc(-n3nccn3)c(Cl)c2)c2cncc(Br)c2O1 (single isomer, unassigned) [Example 49, 8-Bromo-N-(5-chloro-6-(2H-1,2,3-triazol-2-yl)pyridin-3-yl)-2-isopropyl-2,3-dihydro-4H-pyrido[4,3-b][1,4]oxazine-4-carboxamide] | 120 |  | 4460 |  |
| CCC1CN(C(=O)Nc2cnc(-n3nccn3)c(Cl)c2)c2cncc(Br)c2O1 (single isomer, unassigned) [Example 46, 8-Bromo-N-(5-chloro-6-(2H-1,2,3-triazol-2-yl)pyridin-3-yl)-2-ethyl-2,3-dihydro-4H-pyrido[4,3-b][1,4]oxazine-4-carboxamide] | 30 |  | 740 |  |
| CC[C@@H]1CN(C(=O)Nc2cnc(-n3nccn3)c(Cl)c2)c2cncc(Br)c2N1C [Example 34, (R)-8-Bromo-N-(5-chloro-6-(2H-1,2,3-triazol-2-yl)pyridin-3-yl)-2-ethyl-1-methyl-2,3-dihydropyrido[3,4-b]pyrazine-4 (1H)-carboxamide] | 50 | 290 |  | 970 |
| N#Cc1cncc2c1OC(C(F)(F)F)CN2C(=O)Nc1cnc(-n2nccn2)c(Cl)c1 (single isomer, unassigned) [Example 55, N-(5-Chloro-6-(2H-1,2,3-triazol-2-yl)pyridin-3-yl)-8-cyano-2-(trifluoromethyl)-2,3-dihydro-4H-pyrido[4,3-b][1,4]oxazine-4-carboxamide] | 60 | 350 |  |  |
| O=C(Nc1cnc(-n2nccn2)c(Cl)c1)N1CC(C(F)(F)F)Oc2c(Br)cncc21 (single isomer, unassigned) [Example 40, 8-Bromo-N-(5-chloro-6-(2H-1,2,3-triazol-2-yl)pyridin-3-yl)-2-(trifluoromethyl)-2,3-dihydro-4H-pyrido[4,3-b][1,4]oxazine-4-carboxamide] | 60 | 300 |  | 340 |
| Cc1ncc2c(c1Br)OCCN2C(=O)Nc1cnc(-n2nccn2)c(Cl)c1 [Example 41, 8-Bromo-N-(5-chloro-6-(2H-1,2,3-triazol-2-yl)pyridin-3-yl)-7-methyl-2,3-dihydro-4H-pyrido[4,3-b][1,4]oxazine-4-carboxamide] | 1400 | > 10000 |  | 3900 |
| CC1CN(C(=O)Nc2cnc(-n3nccn3)c(Cl)c2)c2cncc(Br)c2O1 (stereo not drawn) [Example 30, 8-Bromo-N-(5-chloro-6-(2H-1,2,3-triazol-2-yl)pyridin-3-yl)-2-methyl-2,3-dihydro-4H-pyrido[4,3-b][1,4]oxazine-4-carboxamide] | 1500 | 420 |  | 1500 |
| CC1(C)CN(C(=O)Nc2cnc(-n3nccn3)c(Cl)c2)c2cncc(Br)c2O1 [Example 19, 8-Bromo-N-(5-chloro-6-(2H-1,2,3-triazol-2-yl)pyridin-3-yl)-2,2-dimethyl-2,3-dihydro-4H-pyrido[4,3-b][1,4]oxazine-4-carboxamide] | 150 | 1100 |  | 730 |
| N#CC1CN(C(=O)Nc2cnc(-n3nccn3)c(C(F)(F)F)c2)c2cccc(Br)c2O1 (stereo not drawn) [Example 6, N-(6-(2H-1,2,3-Triazol-2-yl)-5-(trifluoromethyl)pyridin-3-yl)-8-bromo-2-cyano-2,3-dihydro-4H-benzo[b][1,4]oxazine-4-carboxamide] | 100 | 2100 |  | 700 |
| Cc1ncc2c(c1C#N)OC(C(F)(F)F)CN2C(=O)Nc1cnc(-n2nccn2)c(Cl)c1 (single isomer, unassigned) [Example 53, N-(5-Chloro-6-(2H-1,2,3-triazol-2-yl)pyridin-3-yl)-8-cyano-7-methyl-2-(trifluoromethyl)-2,3-dihydro-4H-pyrido[4,3-b][1,4]oxazine-4-carboxamide] | 60 | 390 |  |  |
| CC(C)C1CN(C(=O)Nc2cnc(-n3nccn3)c(Cl)c2)c2cncc(Br)c2O1 (single isomer, unassigned) [Example 48, 8-Bromo-N-(5-chloro-6-(2H-1,2,3-triazol-2-yl)pyridin-3-yl)-2-isopropyl-2,3-dihydro-4H-pyrido[4,3-b][1,4]oxazine-4-carboxamide] | 80 |  | > 10000 |  |
| C[C@@H]1CN(C(=O)Nc2cnc(-n3nccn3)c(Cl)c2)c2cncc(Br)c2N1C [Example 26, (R)-8-Bromo-N-(5-chloro-6-(2H-1,2,3-triazol-2-yl)pyridin-3-yl)-1.2-dimethyl-2,3-dihydropyrido[3,4-b]pyrazine-4 (1H)-carboxamide] | 110 | 1300 |  | 800 |
| CC1(C)CN(C(=O)Nc2cnc(-n3nccn3)c(C(F)(F)F)c2)c2cccc(Br)c2O1 [Example 23, N-(6-(2H-1,2,3-Triazol-2-yl)-5-(trifluoromethyl)pyridin-3-yl)-8-bromo-2,2-dimethyl-2,3-dihydro-4H-benzo[b][1,4]oxazine-4-carboxamide] | 110 | 290 |  | 860 |
| CC1(C#N)CN(C(=O)Nc2cnc(-n3nccn3)c(Cl)c2)c2cccc(Br)c2O1 (stereo not drawn) [Example 18, 8-Bromo-N-(5-chloro-6-(2H-1,2,3-triazol-2-yl)pyridin-3-yl)-2-cyano-2-methyl-2,3-dihydro-4H-benzo[b][1,4]oxazine-4-carboxamide] | 190 | 1900 |  | 850 |
| Nc1ncc2c(c1Br)OCCN2C(=O)Nc1cnc(-n2nccn2)c(Cl)c1 [Example 36, 7-Amino-8-bromo-N-(5-chloro-6-(2H-1,2,3-triazol-2-yl)pyridin-3-yl)-2,3-dihydro-4H-pyrido[4.3-b][1.4]oxazine-4-carboxamide] | 2200 | 1700 |  |  |
| Cc1ncc2c(c1C#N)OC(C(F)(F)F)CN2C(=O)Nc1cnc(OC(F)F)c(Cl)c1 (single isomer, unassigned) [Example 61, N-(5-Chloro-6-(difluoromethoxy)pyridin-3-yl)-8-cyano-7-methyl-2-(trifluoromethyl)-2,3-dihydro-4H-pyrido[4,3-b][1,4]oxazine-4-carboxamide] | 21 | 286 |  |  |
| CC(C)[C@@H]1CN(C(=O)Nc2cnc(-n3nccn3)c(Cl)c2)c2cncc(Br)c2N1C [Example 35, (R)-8-Bromo-N-(5-chloro-6-(2H-1,2,3-triazol-2-yl)pyridin-3-yl)-2-isopropyl-1-methyl-2,3-dihydropyrido[3,4-b]pyrazine-4 (1H)-carboxamide] | 60 | 170 |  | 730 |
| O=C(Nc1cnc(-n2nccn2)c(Cl)c1)N1CCOc2c(Br)cncc21 [Example 21, 8-Bromo-N-(5-chloro-6-(2H-1,2,3-triazol-2-yl)pyridin-3-yl)-2,3-dihydro-4H-pyrido[4,3-b][1,4]oxazine-4-carboxamide] | > 3000 | > 10000 |  | 2300 |
